Measured values: ChEMBL document CHEMBL1201862, “PubChem BioAssay data set” (2004)
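Five compound concentrations were applied to cells in 96-well plates for 48 hours; endpoints were derived by simple linear interpolation of the resulting dose-response curve. GI50 marks 50% less growth.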 The source made the active and inactive calls. Cut-off read from the data, not from the text of the source: active = GI50 up to about 1.1 µM and inactive = higher.

Tests used:
Assay in all cases: NCI tumour cell line growth inhibition, 48 h
DU-145 = tested on: DU-145
SR = tested on: SR
HCC 2998 = tested on: HCC 2998
ACHN = tested on: ACHN
SK-MEL-5 = tested on: SK-MEL-5
SF-539 = tested on: SF-539
786-0 = tested on: 786-0
SF-268 = tested on: SF-268
SK-MEL-28 = tested on: SK-MEL-28
PC-3 = tested on: PC-3
OVCAR-4 = tested on: OVCAR-4
EKVX = tested on: EKVX
HCT-116 = tested on: HCT-116
UACC-62 = tested on: UACC-62
MDA-MB-231 = tested on: MDA-MB-231
MDA-N = tested on: MDA-N
Malme-3M = tested on: Malme-3M
NCI-H23 = tested on: NCI-H23
SF-295 = tested on: SF-295

SMILES	GI50 (DU-145)	GI50 (SR)	GI50 (HCC 2998)	GI50 (ACHN)	GI50 (SK-MEL-5)	GI50 (SF-539)	GI50 (786-0)	GI50 (SF-268)	GI50 (SK-MEL-28)	GI50 (PC-3)	GI50 (OVCAR-4)	GI50 (EKVX)	GI50 (HCT-116)	GI50 (UACC-62)	GI50 (MDA-MB-231)	GI50 (MDA-N)	GI50 (Malme-3M)	GI50 (NCI-H23)	GI50 (SF-295)
COc1ccc(CN(CCc2c[nH]c3ccccc23)Cc2ccc(OC)cc2)cc1	4.65 µM (inactive)	7.57 µM (inactive)	3.34 µM (inactive)	3.37 µM (inactive)	2.77 µM (inactive)	1.56 µM (inactive)	3.08 µM (inactive)	4.39 µM (inactive)	3.86 µM (inactive)	3.66 µM (inactive)	3.88 µM (inactive)	5.26 µM (inactive)	0.83 µM (active)	2.14 µM (inactive)	8.65 µM (inactive)	1.92 µM (inactive)	3.04 µM (inactive)	2.31 µM (inactive)	1.15 µM (inactive)
Cc1ccc(C(CC(=O)C(C)(C)CN2CCCCC2)SCCS(=O)(=O)O)cc1 (centres undefined)	41.9 µM (inactive)	12.2 µM (inactive)	39.4 µM (inactive)	25.2 µM (inactive)	23.2 µM (inactive)	23.2 µM (inactive)	26.2 µM (inactive)	37.8 µM (inactive)	–	34.4 µM (inactive)	31.6 µM (inactive)	21.9 µM (inactive)	22.3 µM (inactive)	21.7 µM (inactive)	34.7 µM (inactive)	31 µM (inactive)	26.4 µM (inactive)	27.9 µM (inactive)	15 µM (inactive)
N#Cc1nc(COCc2ccccc2)oc1N	> 100 µM (inactive)	> 100 µM (inactive)	> 100 µM (inactive)	> 100 µM (inactive)	–	> 100 µM (inactive)	> 100 µM (inactive)	> 100 µM (inactive)	> 100 µM (inactive)	> 100 µM (inactive)	> 100 µM (inactive)	> 100 µM (inactive)	> 100 µM (inactive)	> 100 µM (inactive)	> 100 µM (inactive)	> 100 µM (inactive)	28.7 µM (inactive)	> 100 µM (inactive)	> 100 µM (inactive)
O=C1c2cc([N+](=O)[O-])sc2C(=O)c2ccsc21	0.273 µM (active)	< 0.0129 µM (active)	0.52 µM (active)	0.281 µM (active)	0.17 µM (active)	0.365 µM (active)	0.449 µM (active)	0.361 µM (active)	0.283 µM (active)	0.532 µM (active)	0.48 µM (active)	1.08 µM (active)	0.293 µM (active)	0.204 µM (active)	0.266 µM (active)	0.191 µM (active)	0.164 µM (active)	0.352 µM (active)	0.354 µM (active)
CCOC(=O)/C=C/[C@H](O[Si](CC)(CC)CC)C(C)(C)C	> 100 µM (inactive)	22.7 µM (inactive)	57.3 µM (inactive)	28.7 µM (inactive)	45.3 µM (inactive)	> 100 µM (inactive)	80.5 µM (inactive)	> 100 µM (inactive)	–	78.3 µM (inactive)	48.1 µM (inactive)	40.5 µM (inactive)	51.2 µM (inactive)	90.2 µM (inactive)	80.4 µM (inactive)	78.2 µM (inactive)	> 100 µM (inactive)	> 100 µM (inactive)	42.4 µM (inactive)
Cc1ccc(S(=O)(=O)N2CCC(=O)c3cc(Br)ccc32)cc1	8.67 µM (inactive)	3.96 µM (inactive)	24 µM (inactive)	16.8 µM (inactive)	7.05 µM (inactive)	5 µM (inactive)	10.1 µM (inactive)	18.2 µM (inactive)	24.7 µM (inactive)	6.01 µM (inactive)	16.8 µM (inactive)	23.9 µM (inactive)	4.72 µM (inactive)	5.21 µM (inactive)	6.44 µM (inactive)	3.01 µM (inactive)	22 µM (inactive)	19.2 µM (inactive)	10.1 µM (inactive)
CC(=O)OC[C@@H](OC(C)=O)[C@@H](OC(C)=O)[C@H]1OC[C@@H]2C[C@H]([C@H]1OC(C)=O)N(Cc1ccccc1)O2	> 100 µM (inactive)	> 100 µM (inactive)	> 100 µM (inactive)	> 100 µM (inactive)	> 100 µM (inactive)	> 100 µM (inactive)	> 100 µM (inactive)	> 100 µM (inactive)	> 100 µM (inactive)	> 100 µM (inactive)	> 100 µM (inactive)	> 100 µM (inactive)	> 100 µM (inactive)	> 100 µM (inactive)	> 100 µM (inactive)	> 100 µM (inactive)	> 100 µM (inactive)	> 100 µM (inactive)	> 100 µM (inactive)
O=[N+]([O-])c1ccc(NN/N=N/c2ccc(-c3nc4ccccc4s3)cc2)c([N+](=O)[O-])c1	30.7 µM (inactive)	26.8 µM (inactive)	17.8 µM (inactive)	22.2 µM (inactive)	15.3 µM (inactive)	18.8 µM (inactive)	20.8 µM (inactive)	26.5 µM (inactive)	33.7 µM (inactive)	24.4 µM (inactive)	24.6 µM (inactive)	15 µM (inactive)	17.5 µM (inactive)	14 µM (inactive)	22.3 µM (inactive)	19 µM (inactive)	28.2 µM (inactive)	20.7 µM (inactive)	19.5 µM (inactive)
CC(C)(C)[Si](C)(C)OCC1OC(n2cnc3c(=O)[nH]cnc32)CC1O (centres undefined)	> 100 µM (inactive)	> 100 µM (inactive)	> 100 µM (inactive)	> 100 µM (inactive)	60.5 µM (inactive)	> 100 µM (inactive)	> 100 µM (inactive)	> 100 µM (inactive)	> 100 µM (inactive)	> 100 µM (inactive)	> 100 µM (inactive)	> 100 µM (inactive)	> 100 µM (inactive)	> 100 µM (inactive)	> 100 µM (inactive)	> 100 µM (inactive)	> 100 µM (inactive)	> 100 µM (inactive)	> 100 µM (inactive)
CCCCN1C(=O)CC2[C@@H]3CCc4cc(OC)ccc4C3CC[C@]2(C)C1=O (some centres undefined)	> 10 µM (inactive)	6.85 µM (inactive)	> 10 µM (inactive)	> 10 µM (inactive)	> 10 µM (inactive)	> 10 µM (inactive)	> 10 µM (inactive)	> 10 µM (inactive)	> 10 µM (inactive)	> 10 µM (inactive)	> 10 µM (inactive)	> 10 µM (inactive)	> 10 µM (inactive)	> 10 µM (inactive)	> 10 µM (inactive)	> 10 µM (inactive)	> 10 µM (inactive)	> 10 µM (inactive)	> 10 µM (inactive)
COC(=O)C1(Cc2ccc3c(c2)CCC3)Cc2ccccc2C1	39.4 µM (inactive)	29.6 µM (inactive)	32 µM (inactive)	41.9 µM (inactive)	–	34.4 µM (inactive)	37.8 µM (inactive)	41.9 µM (inactive)	74.5 µM (inactive)	16.1 µM (inactive)	16.8 µM (inactive)	36.1 µM (inactive)	26.9 µM (inactive)	36.1 µM (inactive)	35.1 µM (inactive)	29.9 µM (inactive)	27.4 µM (inactive)	34.7 µM (inactive)	27.4 µM (inactive)
COC(=O)C(CCC1CC(OC)N(C(=O)OCc2ccccc2)C1)/N=C/c1ccccc1 (centres undefined)	> 100 µM (inactive)	30.5 µM (inactive)	31.6 µM (inactive)	> 100 µM (inactive)	29.2 µM (inactive)	> 100 µM (inactive)	> 100 µM (inactive)	> 100 µM (inactive)	> 100 µM (inactive)	45.1 µM (inactive)	62.1 µM (inactive)	55.2 µM (inactive)	55.3 µM (inactive)	84.1 µM (inactive)	47 µM (inactive)	48 µM (inactive)	–	76 µM (inactive)	> 100 µM (inactive)
CN1N(c2ccccc2)C(=O)C2=NC=C(C(=O)c3ccccc3)C(=N)C21C (centres undefined)	> 100 µM (inactive)	> 100 µM (inactive)	> 100 µM (inactive)	> 100 µM (inactive)	> 100 µM (inactive)	> 100 µM (inactive)	> 100 µM (inactive)	> 100 µM (inactive)	> 100 µM (inactive)	> 100 µM (inactive)	> 100 µM (inactive)	> 100 µM (inactive)	> 100 µM (inactive)	> 100 µM (inactive)	> 100 µM (inactive)	> 100 µM (inactive)	> 100 µM (inactive)	> 100 µM (inactive)	> 100 µM (inactive)
COc1ccc2nc3c([N+](=O)[O-])ccc4c3c(c2c1)N(CCCN(C)C)C(=S)N4CCCN(C)C	5.16 µM (inactive)	1.72 µM (inactive)	2.9 µM (inactive)	4.1 µM (inactive)	4.94 µM (inactive)	4 µM (inactive)	2.78 µM (inactive)	4.46 µM (inactive)	18.1 µM (inactive)	3.73 µM (inactive)	8.05 µM (inactive)	3.74 µM (inactive)	2.1 µM (inactive)	16 µM (inactive)	7.28 µM (inactive)	8.13 µM (inactive)	2.65 µM (inactive)	8.97 µM (inactive)	4.6 µM (inactive)
COc1cc2c(cc1OC)-c1cc3ccc(OC)c(OC)c3c[n+]1CC2 [PALMATINE CHLORIDE]	> 100 µM (inactive)	> 100 µM (inactive)	> 100 µM (inactive)	> 100 µM (inactive)	34.8 µM (inactive)	> 100 µM (inactive)	> 100 µM (inactive)	82.4 µM (inactive)	> 100 µM (inactive)	> 100 µM (inactive)	> 100 µM (inactive)	> 100 µM (inactive)	> 100 µM (inactive)	> 100 µM (inactive)	> 100 µM (inactive)	> 100 µM (inactive)	> 100 µM (inactive)	–	> 100 µM (inactive)
